From patent US20240360139A1, “BLOOD BRAIN BARRIER PENETRATING SELECTIVE INHIBITORS OF ROCK2 PROTEIN KINASES AND USES THEREOF” (GENOSCO Inc., priority 2023, published 2024)

Experiments:
[1] = target: T1, Recombinant ROCK1 (amino acids 1-477) (Homo sapiens, UniProt Q13464); test: ROCK inhibition assay, LANCE Ultra TR-FRET (ROCK1); format: biochemical; conditions: 1 mM of ATP
T1 construct: Recombinant ROCK1 (amino acids 1-477)
Protocol: (§1) Kinase IC50 was determined through an in vitro assay based on LANCE Ultra TR-FRET (Time-Resolved Fluorescence Resonance Energy Transfer) homogeneous technologies method 5 (Perkin Elmer). Recombinant ROCK1 (amino acids 1-477) and ROCK2 (amino acids 5-554) proteins were purchased from Carna Biosciences and SignalChem. Compound activities were measured by Envision and IC50s were calculated. The assays were performed in white LUMITRAC™ 200 96 well half-area microplates from Greiner Bio-One. The kinase reaction buffer consisted of 50 mM HEPES pH 7.5, 1 mM EGTA, 10 mM MgCl2, 2 mM DTT and 0.01% 10 Tween-20. Kinases were incubated with 50 nM (ULight-CREBtide) substrate in the presence of 1 mM (ROCK1) or 1 mM (ROCK2) of ATP. The kinase reaction was carried out for 1 hour before addition of a stopping buffer to a final of 10 mM EDTA and 0.6 nM of LANCE Ultra Europium anti-phospho-CREB (Ser133) antibody (PerkinElmer TRF0200) in LANCE detection buffer. All assay incubations were performed at room temperature, and the microplates were sealed with polyester film during that time. The reaction was incubated for 1 hour, and the signal was read in Envision in TR-FRET mode (excitation at 320 nm and emission at 615/665 nm).
(§2) As used herein, a way to describe potency of inhibitory activity (nM) is a value of inhibitory activity at 50% (IC50).

[2] = target: T2, Recombinant ROCK2 (amino acids 5-554) (Homo sapiens, UniProt O75116); test: ROCK inhibition assay, LANCE Ultra TR-FRET (ROCK2); format: biochemical; conditions: 1 mM of ATP
T2 construct: ROCK2 (amino acids 5-554)
T2 sequence (O75116 5-554): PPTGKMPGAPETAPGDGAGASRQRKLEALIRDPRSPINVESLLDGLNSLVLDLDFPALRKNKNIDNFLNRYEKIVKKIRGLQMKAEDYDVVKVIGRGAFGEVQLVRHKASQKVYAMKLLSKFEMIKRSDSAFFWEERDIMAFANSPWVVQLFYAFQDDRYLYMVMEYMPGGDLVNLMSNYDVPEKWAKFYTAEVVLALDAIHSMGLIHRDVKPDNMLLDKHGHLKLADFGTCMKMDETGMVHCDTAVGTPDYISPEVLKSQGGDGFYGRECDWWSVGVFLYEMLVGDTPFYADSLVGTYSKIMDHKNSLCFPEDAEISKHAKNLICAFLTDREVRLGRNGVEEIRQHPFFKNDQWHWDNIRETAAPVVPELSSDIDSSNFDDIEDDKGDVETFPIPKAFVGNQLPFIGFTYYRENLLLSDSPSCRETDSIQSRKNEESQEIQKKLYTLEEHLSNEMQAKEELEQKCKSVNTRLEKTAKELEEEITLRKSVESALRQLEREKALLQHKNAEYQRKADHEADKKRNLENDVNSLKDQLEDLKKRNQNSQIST
Protocol: as §1, §2

T1 sequence (Q13464 1-477): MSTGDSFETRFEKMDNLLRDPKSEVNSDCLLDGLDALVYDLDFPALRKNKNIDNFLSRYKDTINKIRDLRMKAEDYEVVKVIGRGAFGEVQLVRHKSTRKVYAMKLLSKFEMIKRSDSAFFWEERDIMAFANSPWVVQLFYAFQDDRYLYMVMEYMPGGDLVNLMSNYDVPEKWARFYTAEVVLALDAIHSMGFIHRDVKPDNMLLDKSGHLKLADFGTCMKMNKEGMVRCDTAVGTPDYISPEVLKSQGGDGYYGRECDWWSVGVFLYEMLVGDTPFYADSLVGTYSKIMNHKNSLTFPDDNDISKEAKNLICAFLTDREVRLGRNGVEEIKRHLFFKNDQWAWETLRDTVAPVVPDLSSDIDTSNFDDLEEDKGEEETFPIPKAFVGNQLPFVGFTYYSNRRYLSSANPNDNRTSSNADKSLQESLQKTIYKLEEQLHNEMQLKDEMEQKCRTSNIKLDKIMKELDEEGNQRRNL

| SMILES | IC50 [1] | IC50 [2] |
| --- | --- | --- |
| COc1[nH]ncc1-c1ccc2c(C(=O)C3COc4ccc(Cl)cc4C3)cn(CC3(N)CC3)c2c1 (stereo not drawn) [Compound 4-1, [1-[(1-aminocyclopropyl)methyl]-6-(5-methoxy-1H-pyrazol-4-yl)indol-3-yl]-(6-chlorochroman-3-yl)methanone] | < 20 nM | < 20 nM |
| O=C(c1cn(CC2CNC2)c2cc(-c3cn[nH]c3Cl)ccc12)C1COc2ccc(Cl)cc2C1 (stereo not drawn) [Compound 1-21] | < 20 nM | < 20 nM |
| COc1ccc2c(c1)CC(C(=O)c1cn(C[C@H]3CCN3C)c3cc(-c4cn[nH]c4Cl)ccc13)CO2 (stereo partly drawn) [Compound 1-50] | > 501 nM | < 20 nM |
| COc1ccc2c(c1)CC(C(=O)c1cn(C[C@@H]3CCN3C)c3cc(-c4cn[nH]c4OC)ccc13)CO2 (stereo partly drawn) [Compound 1-47] | > 501 nM | < 20 nM |
| CN(C)CCn1cc(C(=O)[C@H]2COc3ccc(Cl)cc3C2)c2ccc(-c3cn[nH]c3Cl)cc21 [Compound 5-35] | > 501 nM | 201 to 500 nM |
| O=C(c1cn(CC2CCN2)c2cc(-c3cn[nH]c3Cl)ccc12)C1COc2ccc(Cl)cc2C1 (stereo not drawn) [Compound 1-31] | > 501 nM | 21 to 200 nM |
| CN(C)CCn1nc(C(=O)C2COc3ccccc3C2)c2ccc(-c3c[nH]nc3C(F)(F)F)cc21 (stereo not drawn) [Compound 5-54] | > 501 nM | 201 to 500 nM |
| COc1[nH]ncc1-c1ccc2c(C(=O)C3COc4ccc(Cl)cc4C3)cn(CCN(C)C)c2c1 (stereo not drawn) [Compound 5-28] | > 501 nM | < 20 nM |
| CNCCn1cc(C(=O)C2COc3ccc(OC)cc3C2)c2ccc(-c3cn[nH]c3Cl)cc21 (stereo not drawn) [Compound 3-23] | > 501 nM | < 20 nM |
| CN(C)CCn1cc(C(=O)C2COc3ccc(F)cc3C2)c2ccc(-c3cn[nH]c3F)cc21 (stereo not drawn) [Compound 1-23] | > 501 nM | 21 to 200 nM |
| COc1ccc2c(c1)CC(C(=O)c1nn(CCN(C)C)c3cc(-c4c[nH]nc4Cl)ccc13)CCO2 (stereo not drawn) [Compound 5-65] | > 501 nM | > 501 nM |
| C[C@@H](N)Cn1cc(C(=O)C2COc3ccc(Cl)cc3C2)c2ccc(-c3c[nH]nc3Cl)cc21 (stereo partly drawn) [Compound 2-5] | 21 to 200 nM | < 20 nM |
| CNCCn1cc(C(=O)C2COc3ccc(Cl)cc3C2)c2ccc(-c3cn[nH]c3Cl)cc21 (stereo not drawn) [Compound 3-9] | > 501 nM | 201 to 500 nM |
| CCN(C)CCn1cc(C(=O)C2COc3ccc(OC)cc3C2)c2ccc(-c3cn[nH]c3F)cc21 (stereo not drawn) [Compound 3-30] | 201 to 500 nM | 21 to 200 nM |
| COc1[nH]ncc1-c1ccc2c(C(=O)C3COc4ccc(Cl)cc4C3)cn(C[C@@H](C)N(C)C)c2c1 (stereo partly drawn) [Compound 2-14] | 201 to 500 nM | < 20 nM |
| CN(C)CCn1nc(C(=O)C2COc3ccc(Cl)cc3O2)c2ccc(-c3c[nH]nc3Cl)cc21 (stereo not drawn) [Compound 5-61] | > 501 nM | 21 to 200 nM |
| COc1[nH]ncc1-c1ccc2c(C(=O)C3COc4ccc(F)cc4C3)cn(CCN(C)C)c2c1 (stereo not drawn) [Compound 5-37] | > 501 nM | < 20 nM |
| CN(C)CCn1cc(C(=O)[C@@H]2COc3ccc(Cl)cc3C2)c2ccc(-c3cn[nH]c3Cl)cc21 [Compound 5-36] | 201 to 500 nM | < 20 nM |
| CN(C)C1(Cn2cc(C(=O)C3COc4ccc(Cl)cc4C3)c3ccc(-c4cn[nH]c4Cl)cc32)CC1 (stereo not drawn) [Compound 2-13] | 21 to 200 nM | 21 to 200 nM |
| COc1n[nH]cc1-c1ccc2c(C(=O)C3COc4ccc(Cl)cc4C3)nn(CCN(C)C)c2c1 (stereo not drawn) [Compound 5-45] | > 501 nM | < 20 nM |
| COc1[nH]ncc1-c1cc2c(cn1)c(C(=O)C1COc3ccc(Cl)cc3C1)cn2CCN(C)C (stereo not drawn) [Compound 1-1, (6-chlorochroman-3-yl)-[1-[2-(dimethylamino)ethyl]-6-(3-methoxy-1H-pyrazol-4-yl)pyrrolo[3,2-c]pyridin-3-yl]methanone] | > 501 nM | 21 to 200 nM |
| CN(C)CCn1cc(C(=O)C2COc3ccc(Cl)cc3C2)c2ccc(-c3ccnn3C)cc21 (stereo not drawn) [Compound 5-24] | > 501 nM | > 501 nM |
| COc1ccc2c(c1)CC(C(=O)c1cn(CC3(N)CC3)c3cc(-c4cn[nH]c4Cl)ccc13)CO2 (stereo not drawn) [Compound 4-3] | 21 to 200 nM | < 20 nM |

| SMILES | IC50 [1] | IC50 [2] |
| --- | --- | --- |
| CN(C)CCn1nc(C(=O)C2COc3ccccc3O2)c2ccc(-c3cn[nH]c3)cc21 (stereo not drawn) [Compound 5-43] | > 501 nM | 21 to 200 nM |
| CN(C)CCn1cc(C(=O)C2COc3ccccc3O2)c2ccc(-c3c[nH]nc3Cl)cc21 (stereo not drawn) [Compound 5-18] | 201 to 500 nM | 201 to 500 nM |
| COc1n[nH]cc1-c1ccc2c(C(=O)[C@@H]3COc4ccc(Cl)cc4C3)cn(CCCN(C)C)c2c1 [Compound 3-7] | 201 to 500 nM | 21 to 200 nM |
| O=C(c1cn(C[C@H]2CCN2)c2cc(-c3cn[nH]c3F)ccc12)C1COc2ccc(Cl)cc2C1 (stereo partly drawn) [Compound 1-40] | > 501 nM | < 20 nM |
| COc1ccc2c(c1)CC(C(=O)c1nn(CCN(C)C)c3cc(-c4c[nH]nc4OC)ccc13)CCO2 (stereo not drawn) [Compound 5-64] | > 501 nM | > 501 nM |
| COc1ccc2c(c1)CC(C(=O)c1cn(CCN(C)C)c3cc(-c4c[nH]nc4Cl)ncc13)CO2 (stereo not drawn) [Compound 1-14] | > 501 nM | 201 to 500 nM |
| CCN1CC[C@@H]1Cn1cc(C(=O)C2COc3ccc(OC)cc3C2)c2ccc(-c3cn[nH]c3Cl)cc21 (stereo partly drawn) [Compound 1-58] | > 501 nM | 21 to 200 nM |
| CN(C)CCn1cc(C(=O)C2COc3ccc(Cl)cc3C2)c2cnc(-c3cn[nH]c3F)nc21 (stereo not drawn) [Compound 1-34] | > 501 nM | 201 to 500 nM |
| COc1ccc2c(c1)C[C@H](C(=O)c1cn(C[C@H]3CCN3C)c3cc(-c4cn[nH]c4Cl)ccc13)CO2 [Compound 1-51] | > 501 nM | < 20 nM |
| COc1[nH]ncc1-c1ccc2c(C(=O)C3COc4ccc(Cl)cc4C3)cn(CCN(C)C)c2n1 (stereo not drawn) [Compound 1-8] | > 501 nM | 201 to 500 nM |
| CN(C)CCn1cc(C(=O)C2COc3ccc(Cl)cc3C2)c2ccc(-c3cn[nH]c3F)cc21 (stereo not drawn) [Compound 1-24] | > 501 nM | 21 to 200 nM |
| COc1ccc2c(c1)CC(C(=O)c1cn(C[C@@H]3CCN3)c3cc(-c4cn[nH]c4Cl)ccc13)CO2 (stereo partly drawn) [Compound 1-36] | 201 to 500 nM | < 20 nM |
| CCN(CC)CCn1cc(C(=O)[C@@H]2COc3ccc(Cl)cc3C2)c2ccc(-c3cn[nH]c3OC)cc21 [Compound 3-14] | > 501 nM | < 20 nM |
| CCN(CC)CCn1cc(C(=O)[C@@H]2COc3ccc(OC)cc3C2)c2ccc(-c3cn[nH]c3Cl)cc21 [Compound 3-21] | 201 to 500 nM | 21 to 200 nM |
| COc1n[nH]cc1-c1ccc2c(C(=O)[C@@H]3COc4ccc(Cl)cc4C3)nn(CCN(C)C)c2c1 [Compound 5-46] | 201 to 500 nM | < 20 nM |
| NC1(Cn2cc(C(=O)C3COc4ccc(Cl)cc4C3)c3ccc(-c4cn[nH]c4Cl)cc32)CC1 (stereo not drawn) [Compound 4-2] | < 20 nM | < 20 nM |
| COc1ccc2c(c1)CC(C(=O)c1cn(C[C@H]3CCN3C)c3cc(-c4cn[nH]c4F)ccc13)CO2 (stereo partly drawn) [Compound 1-45] | > 501 nM | 21 to 200 nM |
| COc1ccc2c(c1)CC(C(=O)c1nn(CCN(C)C)c3cc(-c4c[nH]nc4OC)ccc13)CO2 (stereo not drawn) [Compound 5-49] | 21 to 200 nM | < 20 nM |
| CN(C)CCn1cc(C(=O)C2COc3ccc(F)cc3O2)c2ccc(-c3c[nH]nc3Cl)cc21 (stereo not drawn) [Compound 5-16] | > 501 nM | 201 to 500 nM |
| CN(C)CCn1cc(C(=O)C2COc3ccc(F)cc3C2)c2ccc(-c3c[nH]nc3Cl)cc21 (stereo not drawn) [Compound 5-19] | > 501 nM | 21 to 200 nM |
| NCCn1cc(C(=O)C2COc3ccc(F)cc3C2)c2ccc(-c3c[nH]nc3Cl)cc21 (stereo not drawn) [Compound 2-4] | < 20 nM | < 20 nM |
| CN1CCCC1Cn1cc(C(=O)C2COc3ccc(Cl)cc3C2)c2ccc(-c3cn[nH]c3Cl)cc21 (stereo not drawn) [Compound 1-20] | > 501 nM | > 501 nM |
